Measurements published in patent publication US20240109903A1, “SUBSTITUTED HETEROCYCLES FOR TREATING CANCER” (Northwestern University, priority 2022, published 2024).
Where two headings read alike, the source gives them in different places.

Tested on: MV-4-11 acute myeloid leukemia cells
Test: CellTiter-Glo 2.0 cell viability, MV-4-11
Type: cell-based
Details: Homo sapiens
Method: 2019 October; 94(4): 1813-1823.
Cell viability was assessed using the CellTiter-Glo 2.0 assay from Promega, which yields a signal proportional to the amount of ATP present in a cell population. Compounds were first dispensed into empty 96-well flat-bottom tissue culture-treated plates (Corning) using an Echo550. MV4-1 cells were diluted to a density of 0.1 million cells per ml, pipetted onto the compounds at a density of 1,000 cells per well for U937 and 3,000 cells per well for MV4-11, mixed, and incubated for 3 days at 37° C. with 5% C02. After incubating, 5 μl of cells from each well were added to 5 μl of CellTiter-Glo 2.0 reagent in a384-well white ProxiPlate (PerkinElmer), incubated for 20 minutes at ambient temperature, and luminescence was analyzed on an EnSpire plate reader. Graphing and regression analysis was performed in Graphpad Prism.

[1] = MV4-11, 72 h, MV-4-11 cells, 3 days, CellTiter-Glo 2.0, read-out: IC50 (uM) [Cell Type: MV-4-11]
[2] = MV4-11, bound stated in text, read-out: IC50 against MV-4-11 acute myeloid leukemia cells

SMILES	IC50 [1] [µM]	IC50 [2] [µM]
O=C1CCCN1CCn1c(C(F)(F)F)cc2c(Cl)ncnc21 [NUCC-0226439]	0.11	< 2
CC(C)(O)CCn1c(C(F)(F)F)cc2c(Cl)ncnc21 [NUCC-0226440]	0.23	< 2
OCCOCCn1c(C(F)(F)F)cc2c(Cl)ncnc21 [NUCC-0226665]	1.23	< 2
CN(C)CCn1c(C(F)(F)F)cc2c(Cl)ncnc21 [NUCC-0226666]	2.09	
FC(F)(F)c1cc2c(Cl)ncnc2n1CCN1CCCC1 [NUCC-0226667]	1.43	< 2
O=S1(=O)CCC(Cn2c(C(F)(F)F)cc3c(Cl)ncnc32)CC1 [NUCC-0226668]	2.88	
CC(C)(C)OC(=O)N1CC(Cn2c(C(F)(F)F)cc3c(Cl)ncnc32)C1 [NUCC-0226669]	1.02	< 2
FC(F)(F)c1cc2c(Cl)ncnc2n1CC1CNC1 [NUCC-0226670]	1.12	< 2
N=C(N)N1CC(Cn2c(C(F)(F)F)cc3c(Cl)ncnc32)C1 [NUCC-0226671]	> 20	
FC(F)(F)CN1CC(Cn2c(C(F)(F)F)cc3c(Cl)ncnc32)C1 [NUCC-0226672]	0.871	< 2
FC(F)(F)c1cc2c(Cl)ncnc2n1CC1CCOCC1 [NUCC-0226673]	2.68	
CC(C)(C)OC(=O)N1CCC(Cn2c(C(F)(F)F)cc3c(Cl)ncnc32)CC1 [NUCC-0226675, tert-butyl 4-((4-chloro-6-(trifluoromethyl)-7H-pyrrolo[2,3-d]pyrimidin-7-yl)methyl)piperidine-1-carboxylate]	2.51	
CC(=O)N1CCC(Cn2c(C(F)(F)F)cc3c(Cl)ncnc32)CC1 [NUCC-0226676]	> 20	
NC(=O)N1CCC(Cn2c(C(F)(F)F)cc3c(Cl)ncnc32)CC1 [NUCC-0226677]	1.6	< 2
CC(C)(C)OC(=O)N1CCC(CCn2c(C(F)(F)F)cc3c(Cl)ncnc32)CC1 [NUCC-0226678]	1.3	< 2
CC(C)(C)OC(=O)N1CCN(CCn2c(C(F)(F)F)cc3c(Cl)ncnc32)CC1 [NUCC-0226681]	0.949	< 2
FC(F)(F)c1cc2c(Cl)ncnc2n1CCN1CCNCC1 [NUCC-0226682]	2.24	
Cc1n[nH]c(C)c1CCn1c(C(F)(F)F)cc2c(Cl)ncnc21 [NUCC-0226684]	0.94	< 2
FC(F)(F)c1cc2c(Cl)ncnc2n1CCn1cccn1 [NUCC-0226685]	3.98	
Fc1ccc(Cn2c(C(F)(F)F)cc3c(Cl)ncnc32)cc1 [NUCC-0226686]	1.13	< 2
FC(F)(F)c1cc2cncnc2n1CC1CCNCC1 [NUCC-0226687]	> 20	
Oc1ncnc2c1cc(C(F)(F)F)n2CC1CCNCC1 [NUCC-0226688]	> 20	
FC(F)(F)c1cc2c(Cl)ncnc2n1Cc1cccnc1 [NUCC-0226690]	0.562	< 2
FC(F)(F)c1cc2c(Cl)ncnc2n1Cc1ccncc1 [NUCC-0226691]	1.32	< 2
FC(F)(F)c1cc2c(Cl)ncnc2n1CCC1CCNCC1 [NUCC-0226692]	0.773	< 2
O=c1cc(Cn2c(C(F)(F)F)cc3c(Cl)ncnc32)cc[nH]1 [NUCC-0226693]	2.01	
Cc1ncnc2c1cc(C(F)(F)F)n2CC1CCNCC1 [NUCC-0226696]	> 20	
COc1ccc(Cn2c(C(F)(F)F)cc3c(Cl)ncnc32)cn1 [NUCC-0226697]	1.08	< 2
Cc1cc2c(Cl)ncnc2n1CC1CCNCC1 [NUCC-0226699]	> 20	
FC(F)(F)CN1CCC(Cn2c(C(F)(F)F)cc3c(Cl)ncnc32)CC1 [NUCC-0226701]	0.919	< 2
